PMC10421158, “In Vitro and In Silico Analysis of the Anticancer Effects of Eurycomanone and Eurycomalactone from Eurycoma longifolia” (Plants, 2023)

Key:
[1] = test system: ovarian (A2780) cancer cell line; experiment: Sulforhodamine B (SRB) cell viability assay, A2780; assay type: cell-based; details: Homo sapiens, A2780, 72 h, read-out: IC50 A2780
Source text: (§1) The cancer cell lines used for this study were ovarian cancer (A2780), cervical cancer (HeLa) and colorectal cancer (HT29) as well as normal cardiomyocyte (H9C2) and liver (WRL-68) cell lines. All cell lines were purchased from American Type Culture Collections except A2780, which were purchased from the European Collection of Authenticated Cell Cultures. These cells were subcultured in Dulbecco’s Modified Eagle’s medium (Sigma-Aldrich, St. Louis, MO, USA) and supplemented with 10% fetal bovine serum (Sigma, USA), 1% penicillin–streptomycin (Sigma, USA), 1% amphotericin B (Sigma, USA) and 1% gentamicin (Sigma, USA). The cells were seeded in each well of 96 well plates and incubated in a humidified incubator at 37 °C and 5% carbon dioxide in air for 24 h. Each cell line was then treated with eurycomanone and eurycomalactone at five different concentrations (0.08, 0.4, 2, 10 and 50 µM) in triplicate. Cisplatin and methotrexate (Sigma, USA), known chemo-drugs, were also treated on these cell lines at five different concentrations (0.08, 0.4, 2, 10, 50 µM for cisplatin, 0.0008, 0.004, 0.02, 0.1, 0.5 µM for methotrexate) for the comparative studies. The treated cells were then incubated in the same incubator with the mentioned conditions for 72 h. The experiment was repeated at least three times.
(§2) Briefly, 50 μL of ice cold tricholoroacetic acid (TCA) was added to each well and allowed to stand for 30 min at room temperature, followed by rinsing each well with tap water. Then, 100 μL of 0.4% SRB was added to each well to stain living cells for 30 min followed by a rinse with 1% acetic acid. Finally, 100 μL of Tris buffer was added to each well and the optical density (OD) of the treated and nontreated cells were read at 492 nm with a Magellan V.4 microtiter plate reader (Tecan, Salzburg, Austria). The percentage of cell viability was calculated based on (OD492nm of the treated cells/OD492nm of the nontreated cells) × 100. The IC50 values were determined from the dose–response curve of percentage of cell viability versus the concentration of the compounds (μM). Cells viability assay for each treatment was performed in triplicate in at least three independent experiments, and the IC50 values are given as the mean ± SEM.

[2] = test system: cervical (HeLa) cancer cell line; experiment: Sulforhodamine B (SRB) cell viability assay, HeLa; assay type: cell-based; details: Homo sapiens, HeLa, 72 h, read-out: IC50 HeLa
Source text: as §1
as §2, with “Sulforhodamine B (SRB) assay had been performed after the treated cells were incubated for 72 h. Briefly,” for “Briefly,”

[3] = test system: colorectal (HT29) cancer cell line; experiment: Sulforhodamine B (SRB) cell viability assay, HT-29; assay type: cell-based; details: Homo sapiens, HT-29, 72 h, read-out: IC50 HT-29
Source text: as §1
as §2, with “Sulforhodamine B (SRB) assay had been performed after the treated cells were incubated for 72 h. Briefly,” for “Briefly,”

[4] = test system: cardiomyocyte (H9C2) normal cell line; experiment: Sulforhodamine B (SRB) cell viability assay, H9C2; assay type: cell-based; details: Rattus norvegicus, H9c2, 72 h, read-out: IC50 H9C2
Source text: as §1
as §2, with “Sulforhodamine B (SRB) assay had been performed after the treated cells were incubated for 72 h. Briefly,” for “Briefly,”

[5] = test system: liver (WRL-68) normal cell line; experiment: Sulforhodamine B (SRB) cell viability assay, WRL-68; assay type: cell-based; details: Homo sapiens, WRL68, 72 h, read-out: IC50 WRL-68
Source text: as §1
as §2, with “Sulforhodamine B (SRB) assay had been performed after the treated cells were incubated for 72 h. Briefly,” for “Briefly,”

[6] = test system: ovarian (A2780), cervical (HeLa) and colorectal (HT29) cancer cells; experiment: SRB assay, range over the three cancer cell lines; assay type: cell-based; details: 72 h, read-out: range of IC50 values in cancer cell lines
Source text: as §1
as §2, with “Cells viability assay for each treatment was performed in triplicate in at least three independent experiments, and the IC50 values are given as the mean ± SEM.” left out

A2780 cells = experiment: Apoptotic Hoechst 33342 assay, A2780; assay type: cell-based
Protocol: (§3) A2780, HT-29 and HeLa cancer cell lines were chosen for evaluating the apoptotic effects of eurycomanone and eurycomalactone. The morphological changes of cells undergoing apoptosis were visualised under a fluoresecence microscope after performing the Hoechst 33342 assay. Briefly, 10 × 10^4 cells were seeded for 500 µL/well of four Labtek® Chamber Slides (Thermo Fisher Scientific, Waltham, MA, USA) and incubated in 5% carbon dioxide in air for 24 h for the cells’ attachment. The cells were treated with concentrations of IC50/5, IC50 and IC50 × 5 values of eurycomanone and eurycomalactone in different wells and further incubated for 6, 24 and 48 h, respectively. Nontreated cells were also included in the experimental design, which acted as a negative control in this study. Following this, the media from each well were discarded and cells were fixed with 4% (w/v) paraformaldehyde for 30 min. The cells were then washed with cold phosphate buffer solution (PBS) prior to staining using Hoechst 33342, according to the method of [26]. Quantitative assessment of apoptotic cells were determined by counting apoptotic nuclei from five randomly chosen areas corroborating visual impression based on the morphology shown in Figure 3 and Figure 4. The apoptotic index (number of apoptotic nuclei per total nuclei × 100) was expressed as a percentage of the mean ± S.E.M and analysed using ANOVA followed by Tukey’s multiple comparison test.

HT-29 cells = experiment: Apoptotic Hoechst 33342 assay, HT-29; assay type: cell-based
Protocol: as §3

HeLa cells = experiment: Apoptotic Hoechst 33342 assay, HeLa; assay type: cell-based
Protocol: as §3

[7] = set-up: method as in PMID 16206032; details: in vivo, given orally; cited from earlier work
[8] = test system: Cytochrome P450 (CYP) enzymes; set-up: method as in PMID 23881640; details: in vitro assay; cited from earlier work

`C=C1[C@@H](O)[C@]2(O)OC[C@]34[C@H]2[C@@]2(C)[C@H](O)C(=O)C=C(C)[C@@H]2C[C@H]3OC(=O)[C@H](O)[C@@]14O` [Eurycomanone] showed an IC50 [1] of 1.37 ± 0.13 µM, an IC50 [2] of 4.58 ± 0.09 µM and an IC50 [3] of 1.22 ± 0.11 µM. The IC50 [4] was > 50 µM, the IC50 [5] was 1.34 ± 0.046 µM and the IC50 [6] was 1.22 to 4.58 µM. For the same compound, the Apoptotic index (A2780 cells; A2780, IC50, 6 h) was 8.48 ± 0.60 ^ab/x %, the Apoptotic index (A2780 cells; A2780, IC50, 24 h) was 13.13 ± 1.30 ^ab/y % and the Apoptotic index (A2780 cells; A2780, IC50, 48 h) was 31.74 ± 3.19 ^ab/xz,yz %. For the same compound, the Apoptotic index (A2780 cells; A2780, IC50/5, 6 h) was 4.30 ± 0.34 ^a/x %, the Apoptotic index (A2780 cells; A2780, IC50/5, 24 h) was 7.11 ± 1.60 ^a/xy % and the Apoptotic index (A2780 cells; A2780, IC50/5, 48 h) was 14.72 ± 0.59 ^a/xz,yz %. For the same compound, the Apoptotic index (A2780 cells; A2780, IC50 × 5, 6 h) was 13.01 ± 0.29 ^ac,bc/x %, the Apoptotic index (A2780 cells; A2780, IC50 × 5, 24 h) was 28.90 ± 0.93 ^ac,bc/xy % and the Apoptotic index (A2780 cells; A2780, IC50 × 5, 48 h) was 100.00 ± 0.00 ^ac,bc/xz,yz %. For the same compound, the Apoptotic index (HT-29 cells; HT-29, IC50, 6 h) was 5.24 ± 0.17 ^b/x %, the Apoptotic index (HT-29 cells; HT-29, IC50, 24 h) was 6.30 ± 1.01 ^b/y % and the Apoptotic index (HT-29 cells; HT-29, IC50, 48 h) was 14.80 ± 0.56 ^ab/xz,yz %. The Apoptotic index (HT-29 cells; HT-29, IC50/5, 6 h) was 4.08 ± 0.81 ^a/x %, the Apoptotic index (HT-29 cells; HT-29, IC50/5, 24 h) was 4.18 ± 0.21 ^a/y % and the Apoptotic index (HT-29 cells; HT-29, IC50/5, 48 h) was 4.24 ± 0.20 ^a/z %. For the same compound, the Apoptotic index (HT-29 cells; HT-29, IC50 × 5, 6 h) was 5.97 ± 0.35 ^ac/x %, the Apoptotic index (HT-29 cells; HT-29, IC50 × 5, 24 h) was 10.95 ± 0.71 ^ac,bc/y % and the Apoptotic index (HT-29 cells; HT-29, IC50 × 5, 48 h) was 26.20 ± 1.48 ^ac,bc/xz,yz %. For the same compound, the Apoptotic index (HeLa cells; IC50, 6 h) was 19.98 ± 0.76 ^ab/x %, the Apoptotic index (HeLa cells; IC50, 24 h) was 52.57 ± 1.40 ^ab/y % and the Apoptotic index (HeLa cells; IC50, 48 h) was 61.16 ± 0.63 ^ab/xz,yz %. The Apoptotic index (HeLa cells; IC50/5, 6 h) was 8.42 ± 0.20 ^a/x %, the Apoptotic index (HeLa cells; IC50/5, 24 h) was 13.76 ± 1.26 ^a/xy % and the Apoptotic index (HeLa cells; IC50/5, 48 h) was 16.79 ± 0.92 ^a/xz,yz %. The Apoptotic index (HeLa cells; IC50 × 5, 6 h) was 41.37 ± 0.24 ^ac,bc/x %, the Apoptotic index (HeLa cells; IC50 × 5, 24 h) was 94.56 ± 1.16 ^ac,bc/xy % and the Apoptotic index (HeLa cells; IC50 × 5, 48 h) was 100.00 ± 0.00 ^ac,bc/xz,yz %. The oral bioavailability [7] was “poorly bioavailable” and the “inhibition of cytochromes in vitro” value [8] was “no inhibition”.
